Biological target: E3 ubiquitin-protein ligase CBL-B (Homo sapiens, UniProt Q13191)
Test: Binding affinity to Cbl-b (unknown origin) assessed as inhibition constant incubated for 60 mins by TR-FRET assay

E3 ubiquitin-protein ligase CBL-B, sequence (Q13191 whole entry): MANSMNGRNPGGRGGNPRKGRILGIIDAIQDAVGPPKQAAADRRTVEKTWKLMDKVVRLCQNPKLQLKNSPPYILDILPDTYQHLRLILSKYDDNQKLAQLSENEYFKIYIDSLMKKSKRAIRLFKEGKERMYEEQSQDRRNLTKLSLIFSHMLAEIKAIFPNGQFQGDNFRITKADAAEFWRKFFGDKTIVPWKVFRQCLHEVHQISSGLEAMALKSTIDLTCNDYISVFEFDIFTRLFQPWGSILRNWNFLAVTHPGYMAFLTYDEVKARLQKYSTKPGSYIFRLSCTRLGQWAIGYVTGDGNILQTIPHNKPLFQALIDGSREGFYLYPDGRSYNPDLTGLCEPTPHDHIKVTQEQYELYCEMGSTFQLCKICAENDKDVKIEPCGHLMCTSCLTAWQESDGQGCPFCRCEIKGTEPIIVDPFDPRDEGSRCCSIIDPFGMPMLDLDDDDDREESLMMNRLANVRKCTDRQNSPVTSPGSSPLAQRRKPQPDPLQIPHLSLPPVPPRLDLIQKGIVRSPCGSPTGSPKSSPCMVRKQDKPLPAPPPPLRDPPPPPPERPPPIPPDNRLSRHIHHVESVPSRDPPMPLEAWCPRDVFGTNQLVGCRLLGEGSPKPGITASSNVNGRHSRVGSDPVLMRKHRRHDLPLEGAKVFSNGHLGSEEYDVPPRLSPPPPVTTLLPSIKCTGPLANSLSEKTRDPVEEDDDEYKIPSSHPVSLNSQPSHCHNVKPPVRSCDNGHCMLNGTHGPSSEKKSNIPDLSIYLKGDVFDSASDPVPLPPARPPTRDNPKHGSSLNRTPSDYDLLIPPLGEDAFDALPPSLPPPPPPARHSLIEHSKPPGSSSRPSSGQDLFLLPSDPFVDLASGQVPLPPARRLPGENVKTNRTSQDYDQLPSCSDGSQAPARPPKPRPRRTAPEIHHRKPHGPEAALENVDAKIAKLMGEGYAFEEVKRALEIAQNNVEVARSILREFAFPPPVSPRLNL

Row | SMILES | Ki
1 | CCN(Cc1cc2c(C(F)(F)F)cn(-c3cccc([C@]4(c5nncn5C)C[C@@H](OC)C4)c3)c(=O)c2[nH]1)CC(C)C | 3.88 nM
2 | Cn1cnnc1C1(c2cccc(-n3cc(C(F)(F)F)c4cc(CN5CCC[C@@H]6C[C@@H]65)[nH]c4c3=O)c2)CCC1 | 4.19 nM
3 | CCN(CC)Cc1cc2c(C(F)(F)F)cn(-c3cccc(C4(c5nncn5C)CCC4)c3)c(=O)c2[nH]1 | 2.58 nM
4 | CO[C@H]1C[C@](c2cccc(-n3cc(C(F)(F)F)c4cc(CN5CC6CCC(C6)C5)[nH]c4c3=O)c2)(c2nncn2C)C1 | 5.43 nM
5 | CO[C@H]1C[C@](c2cccc(-n3cc(C(F)(F)F)c4cc(CN5CCCC6(CC6)C5)[nH]c4c3=O)c2)(c2nncn2C)C1 | 9.3 nM
6 | Cn1cnnc1C1(c2cccc(-n3cc(C(F)(F)F)c4cc(CN5CC6CC6C5)[nH]c4c3=O)c2)CCC1 (stereo not drawn) | 2.34 nM
7 | CO[C@H]1C[C@@](c2cccc(-n3cc(C(F)(F)F)c4cc(CN5CC6CC6C5)[nH]c4c3=O)c2)(c2nncn2C)C1 (stereo partly drawn) | 3.01 nM
8 | CO[C@H]1C[C@](c2cccc(-n3cc(C(F)(F)F)c4cc(CN5CC6CC6C5)[nH]c4c3=O)c2)(c2nncn2C)C1 (stereo partly drawn) | 5.45 nM

Stronger by Ki, values ahead:

Row | Ki | SMILES
9 | 1.81 nM | Cn1cnnc1[C@]1(c2cccc(-n3cc(C(F)(F)F)c4cc(CN5CCC[C@@H]6C[C@@H]65)[nH]c4c3=O)c2)C[C@H](C)C1
10 | 1.74 nM | Cn1cnnc1[C@]1(c2cccc(-n3cc(C(F)(F)F)c4cc(CN5CC6CCC(C6)C5)[nH]c4c3=O)c2)C[C@H](C)C1
11 | 1.16 nM | Cn1cnnc1[C@]1(c2cccc(-n3cc(C(F)(F)F)c4cc(CN5CCC[C@H]6C[C@H]65)[nH]c4c3=O)c2)C[C@H](C)C1
12 | 1.13 nM | Cn1cnnc1C1(c2cccc(-n3cc(C(F)(F)F)c4cc(CNC5(C)CCC5)[nH]c4c3=O)c2)CCC1
13 | 0.82 nM | CO[C@H]1C[C@@](c2cccc(-n3cc(C(F)(F)F)c4cc(CN5CC6CCC(C6)C5)[nH]c4c3=O)c2)(c2nncn2C)C1
